In patent US20230416248A1, “COMPOUNDS AND USES THEREOF” (Foghorn Therapeutics Inc., priority 2020, published 2023):
Like-named read-outs stand apart in the source and are kept apart here.

Tests used:
BRM = molecular target: T1, BRM (Homo sapiens, UniProt P51531); experiment: ATPase catalytic activity of BRM, ADP-Glo in vitro biochemical assay; details: for IC50: 30 nM BRM, 400 μM ATP; for Ratio* (BRG1 IC50 (μM) divided by BRM IC50 (μM)): selectivity ratio BRG1 IC50 / BRM IC50
T1 construct: made in house; host or cells: High Five insect cells
Procedure, shortened: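 Recombinant BRM (30 nM) hydrolysed 400 μM ATP with 20 nM salmon sperm DNA in pH 8 Tris buffer containing 20 mM MgCl2, 50 mM NaCl, 0.1% Tween-20 and 1 mM DTT, 1 h at room temperature. ADP formed was quantified by ADP-Glo luminescence.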

BRG-1 = molecular target: T2, BRG-1 (Homo sapiens, UniProt P51532); experiment: ATPase catalytic activity of BRG-1, ADP-Glo in vitro biochemical assay; details: 30 nM BRG-1, 400 μM ATP, read-out: BRG1 IC50
T2 construct: made in house; host or cells: High Five insect cells
Procedure, shortened: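 BRG-1 ATPase activity was measured in vitro by ADP-Glo. After the reaction, ADP-Glo Reagent depleted unconsumed ATP (40 min, room temperature), then Kinase Detection Reagent converted product ADP to ATP (60 min, room temperature), and luciferase luminescence was read.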

[1] = ATPase catalytic activity, ADP-Glo

T2 sequence (P51532 whole entry): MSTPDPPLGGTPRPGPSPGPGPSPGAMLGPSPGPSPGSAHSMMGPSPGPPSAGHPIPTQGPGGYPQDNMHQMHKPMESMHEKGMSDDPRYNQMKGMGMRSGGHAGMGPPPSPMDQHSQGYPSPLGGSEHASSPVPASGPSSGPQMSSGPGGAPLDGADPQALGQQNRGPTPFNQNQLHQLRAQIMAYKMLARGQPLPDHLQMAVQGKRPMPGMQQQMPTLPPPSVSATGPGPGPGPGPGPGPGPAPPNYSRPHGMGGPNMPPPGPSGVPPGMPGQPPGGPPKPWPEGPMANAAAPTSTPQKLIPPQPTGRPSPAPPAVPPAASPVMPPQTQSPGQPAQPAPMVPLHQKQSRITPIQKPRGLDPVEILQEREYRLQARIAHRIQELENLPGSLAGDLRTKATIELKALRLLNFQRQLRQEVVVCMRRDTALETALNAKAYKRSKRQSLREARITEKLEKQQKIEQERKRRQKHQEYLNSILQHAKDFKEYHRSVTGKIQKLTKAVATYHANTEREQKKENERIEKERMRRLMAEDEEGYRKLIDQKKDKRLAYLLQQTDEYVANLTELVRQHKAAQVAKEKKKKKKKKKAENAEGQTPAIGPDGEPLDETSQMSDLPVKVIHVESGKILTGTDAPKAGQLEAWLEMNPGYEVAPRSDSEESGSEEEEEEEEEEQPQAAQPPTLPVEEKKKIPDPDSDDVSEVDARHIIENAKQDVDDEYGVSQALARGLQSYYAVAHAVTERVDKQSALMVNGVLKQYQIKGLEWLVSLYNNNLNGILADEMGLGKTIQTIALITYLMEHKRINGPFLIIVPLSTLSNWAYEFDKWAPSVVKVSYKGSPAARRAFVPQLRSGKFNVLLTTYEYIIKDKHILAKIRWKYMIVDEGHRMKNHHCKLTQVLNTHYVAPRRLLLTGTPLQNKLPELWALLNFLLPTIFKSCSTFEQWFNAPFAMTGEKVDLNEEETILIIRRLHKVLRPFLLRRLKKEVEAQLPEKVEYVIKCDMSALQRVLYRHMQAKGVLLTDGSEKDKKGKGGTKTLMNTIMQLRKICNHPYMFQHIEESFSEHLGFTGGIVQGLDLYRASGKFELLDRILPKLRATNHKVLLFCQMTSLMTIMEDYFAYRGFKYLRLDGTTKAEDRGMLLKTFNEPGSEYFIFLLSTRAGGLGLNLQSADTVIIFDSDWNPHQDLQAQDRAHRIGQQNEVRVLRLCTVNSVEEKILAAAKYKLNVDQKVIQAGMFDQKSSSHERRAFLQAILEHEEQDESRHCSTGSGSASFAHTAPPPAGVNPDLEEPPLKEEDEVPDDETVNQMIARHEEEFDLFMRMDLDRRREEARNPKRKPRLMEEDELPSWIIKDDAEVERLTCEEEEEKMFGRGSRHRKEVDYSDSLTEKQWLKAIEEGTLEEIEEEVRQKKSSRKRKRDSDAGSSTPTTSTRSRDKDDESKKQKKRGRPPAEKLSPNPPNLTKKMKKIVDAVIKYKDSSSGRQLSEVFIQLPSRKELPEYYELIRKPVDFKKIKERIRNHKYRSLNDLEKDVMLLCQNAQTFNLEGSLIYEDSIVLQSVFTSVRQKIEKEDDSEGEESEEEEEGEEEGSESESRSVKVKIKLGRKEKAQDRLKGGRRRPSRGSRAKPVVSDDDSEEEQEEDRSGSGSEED
T1 sequence (P51531 whole entry): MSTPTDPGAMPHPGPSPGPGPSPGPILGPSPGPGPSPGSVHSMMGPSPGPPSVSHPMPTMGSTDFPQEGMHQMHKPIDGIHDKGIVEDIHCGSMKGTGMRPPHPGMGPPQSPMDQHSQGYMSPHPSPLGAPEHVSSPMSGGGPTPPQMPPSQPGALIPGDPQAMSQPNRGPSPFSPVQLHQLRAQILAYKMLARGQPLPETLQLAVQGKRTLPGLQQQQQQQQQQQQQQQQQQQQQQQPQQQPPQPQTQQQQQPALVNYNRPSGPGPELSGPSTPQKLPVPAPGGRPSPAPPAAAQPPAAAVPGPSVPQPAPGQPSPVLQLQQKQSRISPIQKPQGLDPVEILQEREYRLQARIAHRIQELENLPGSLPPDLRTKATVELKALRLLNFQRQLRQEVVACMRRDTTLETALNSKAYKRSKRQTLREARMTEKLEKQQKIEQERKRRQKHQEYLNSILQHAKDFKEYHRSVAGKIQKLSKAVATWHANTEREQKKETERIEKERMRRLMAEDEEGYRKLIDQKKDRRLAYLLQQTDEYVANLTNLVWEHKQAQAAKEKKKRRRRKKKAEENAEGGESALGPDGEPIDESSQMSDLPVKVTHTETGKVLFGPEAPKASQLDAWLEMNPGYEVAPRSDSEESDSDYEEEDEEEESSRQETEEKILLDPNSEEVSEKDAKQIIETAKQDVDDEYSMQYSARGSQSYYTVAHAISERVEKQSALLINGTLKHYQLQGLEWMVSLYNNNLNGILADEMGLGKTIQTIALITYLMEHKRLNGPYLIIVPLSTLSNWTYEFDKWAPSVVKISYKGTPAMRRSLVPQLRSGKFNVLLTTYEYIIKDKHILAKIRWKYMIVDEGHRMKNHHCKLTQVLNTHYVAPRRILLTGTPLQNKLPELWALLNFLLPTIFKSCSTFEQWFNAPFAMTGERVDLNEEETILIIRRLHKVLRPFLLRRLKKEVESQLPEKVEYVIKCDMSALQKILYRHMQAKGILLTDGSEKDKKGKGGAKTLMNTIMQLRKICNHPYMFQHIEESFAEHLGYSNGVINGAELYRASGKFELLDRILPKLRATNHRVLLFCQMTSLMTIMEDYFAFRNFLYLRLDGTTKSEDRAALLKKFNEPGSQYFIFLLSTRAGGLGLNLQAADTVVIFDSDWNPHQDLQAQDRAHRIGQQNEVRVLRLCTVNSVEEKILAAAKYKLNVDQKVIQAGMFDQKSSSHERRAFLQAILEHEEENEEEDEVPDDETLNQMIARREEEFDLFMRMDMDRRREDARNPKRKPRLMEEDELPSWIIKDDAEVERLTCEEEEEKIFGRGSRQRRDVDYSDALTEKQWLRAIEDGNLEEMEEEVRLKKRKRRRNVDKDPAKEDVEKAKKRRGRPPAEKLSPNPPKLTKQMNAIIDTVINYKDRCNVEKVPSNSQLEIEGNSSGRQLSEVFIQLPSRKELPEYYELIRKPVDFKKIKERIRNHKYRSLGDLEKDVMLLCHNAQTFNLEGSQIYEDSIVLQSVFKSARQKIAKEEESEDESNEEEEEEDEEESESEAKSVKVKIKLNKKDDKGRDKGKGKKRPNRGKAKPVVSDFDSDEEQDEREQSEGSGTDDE

| Compound | IC50 (BRM; [1]) | Ratio* (BRM; ratio of BRG1 IC50 to BRM IC50) | IC50 (BRG-1; [1]) | IC50 (BRM; ADP-Glo ATPase assay) | Ratio* (BRG1 IC50 (μM) divided by BRM IC50 (μM)) (BRM) | IC50 (BRG-1; ADP-Glo ATPase assay) | Ratio* (BRM; ratio BRG1 IC50 / BRM IC50) |
| --- | --- | --- | --- | --- | --- | --- | --- |
| Cc1ccc2c(n1)N(c1ccc3cnc(CNC(=O)c4ccc5c(c4)S(=O)(=O)CCOC5)cc3n1)CCC2 [Compound 315] | 18.4 nM | 18.47 | 340 nM |  |  |  |  |
| O=C(NCc1cc2nc(N3CCCc4c(Cl)ccnc43)ccc2cn1)c1ccc2c(c1)S(=O)(=O)CCOC2 [Compound 478] | 25.5 nM | 9.80 | 250 nM |  |  |  |  |
| O=C(NCc1cc2nc(-c3cccc([C@H]4CC4(F)F)c3)ccc2cn1)c1ccc2c(c1)S(=O)(=O)CCOC2 [Compound 252] |  |  |  | 75.3 nM | 18.31 | 1380 nM |  |
| O=C(NCc1cc2nc(-c3cncc(C4CC4)n3)ccc2cn1)c1ccc2c(c1)S(=O)(=O)COCC2 [Compound 236] |  |  |  | 34 nM | 12.93 | 440 nM |  |
| O=C(NCc1cc2nc(N3CCCc4ccc(OCC5CCO5)cc43)ccc2cn1)c1ccc2c(c1)S(=O)(=O)CCOC2 (centres unmarked) [Compound 735] |  |  |  | 8.2 nM |  | 110 nM | 13.49 |
| O=C(NCc1cc2nc(N3CCCc4ccc(C(F)(F)F)cc43)ccc2cn1)c1ccc2c(c1)S(=O)(=O)CCOC2 [Compound 525] | 25.1 nM | 14.85 | 373 nM |  |  |  |  |
| O=C(NCc1cc2nc(-c3cccc(C4(F)CC(F)(F)C4)n3)ccc2cn1)c1ccc2c(c1)S(=O)(=O)CCOC2 [Compound 170] |  |  |  | 109 nM | 6.33 | 689 nM |  |
| COc1cc(Cl)ccc1-c1ccc2cnc(CNC(=O)c3ccc4c(c3)S(=O)(=O)CCOC4)cc2n1 [Compound 102] |  |  |  | 18.7 nM | 7.68 | 143 nM |  |
| C[C@@H]1CN(c2cccc(-c3ccc4cnc(CNC(=O)c5ccc6c(c5)S(=O)(=O)CCCO6)cc4n3)n2)C[C@H](C)O1 [Compound 53] |  |  |  | 11.7 nM |  | 116 nM |  |
| O=C(NCc1cc2nc(-c3cncc(C4CC4)n3)ccc2cn1)c1ccc2c(c1)S(=O)(=O)NCCC2 [Compound 293] |  |  |  | 223 nM | 10.84 | 2410 nM |  |
| COCCN(C)c1cccc(-c2ccc3cnc(CNC(=O)c4cnc(C(F)F)c(S(C)(=O)=O)c4)cc3n2)n1 [Compound 105] |  |  |  | 69.9 nM | 13.41 | 937 nM |  |
| COC[C@H](C)S(=O)(=O)c1cccc(C(=O)NCc2cc3nc(-c4cncc(C5CC5)n4)ccc3cn2)c1 [Compound 260] |  |  |  | 697 nM | 7.17 | 5000 nM |  |
| CN(CC(F)F)c1cccc(-c2ccc3cnc(CNC(=O)c4ccc5c(c4)S(=O)(=O)CCOC5)cc3n2)n1 [Compound 115] |  |  |  | 23.5 nM | 10.05 | 236 nM |  |
| C[C@@H]1CC(c2cccc(-c3ccc4cnc(CNC(=O)c5ccc6c(c5)S(=O)(=O)CCOC6)cc4n3)n2)=C[C@H](C)O1 [Compound 46] |  |  |  | 9.3 nM | 4.92 | 45.9 nM |  |
| O=C(NCc1cc2nc(N3CCOc4c(F)cc(C5CC5)nc43)ccc2cn1)c1ccc2c(c1)S(=O)(=O)CCOC2 [Compound 804] |  |  |  | 15.8 nM |  | 646 nM | 40.93 |
| COC1(CN(C)c2cccc(-c3ccc4cnc(CNC(=O)c5ccc6c(c5)S(=O)(=O)CCOC6)cc4n3)n2)CC1 [Compound 323] | 17.1 nM | 13.46 | 230 nM |  |  |  |  |
| C[C@@H]1CN(c2cccc(-c3ccc4cnc(CNC(=O)c5ccc6c(c5)S(=O)(=O)CCCOC6)cc4n3)n2)C[C@H](C)O1 [Compound 628] | 2.7 nM | 3.60 | 9.7 nM |  |  |  |  |
| CC1COCc2ccc(C(=O)NCc3cc4nc(-c5cccc(N6C[C@@H](C)O[C@@H](C)C6)n5)ccc4cn3)cc2S1(=O)=O (some centres unmarked) [Compound 319] | 21.1 nM | 15.59 | 329 nM |  |  |  |  |
| Cc1cc(C(=O)NCc2cc3nc(-c4cccc(N5C[C@@H](C)O[C@@H](C)C5)n4)ccc3cn2)cc2c1COCCS2(=O)=O [Compound 101] |  |  |  | 7.9 nM | 7.32 | 57.7 nM |  |
| O=C(NCc1cc2nc(N3CCCc4ccncc43)ccc2cn1)c1ccc2c(c1)S(=O)(=O)CCOC2 [Compound 52] |  |  |  | 76 nM | 9.43 | 716 nM |  |
| O=C(NCc1cc2nc(-c3cccc(CC(F)F)n3)ccc2cn1)c1ccc2c(c1)S(=O)(=O)CCOC2 [Compound 205] |  |  |  | 90.3 nM | 16.45 | 1480 nM |  |
| Cc1ncc(C(=O)NCc2cc3nc(-c4cccc(N5C[C@@H](C)O[C@@H](C)C5)n4)ccc3cn2)cc1S(C)(=O)=O [Compound 107] |  |  |  | 5.6 nM | 9.98 | 56 nM |  |

| Compound | IC50 (BRM; [1]) | Ratio* (BRM; ratio of BRG1 IC50 to BRM IC50) | IC50 (BRG-1; [1]) | IC50 (BRM; ADP-Glo ATPase assay) | Ratio* (BRG1 IC50 (μM) divided by BRM IC50 (μM)) (BRM) | IC50 (BRG-1; ADP-Glo ATPase assay) | Ratio* (BRM; ratio BRG1 IC50 / BRM IC50) |
| --- | --- | --- | --- | --- | --- | --- | --- |
| CN1CCCCc2ccc(-c3ccc4cnc(CNC(=O)c5ccc6c(c5)S(=O)(=O)CCOC6)cc4n3)nc21 [Compound 569] | 156 nM | 3.32 | 517 nM |  |  |  |  |
| Cn1c(C(F)F)cc2c(-c3ccc4cnc(CNC(=O)c5ccc6c(c5)S(=O)(=O)CCOC6)cc4n3)ccnc21 [Compound 397] | 15.2 nM | 11.51 | 175 nM |  |  |  |  |
| CS(=O)(=O)c1cc(C(=O)NCc2cc3nc(-c4cn([C@H]5C[C@H](F)C5)nc4OC(F)F)ccc3cn2)ccc1C(F)F [Compound 348] | 74.3 nM | 34.42 | 2560 nM |  |  |  |  |
| C[C@@H]1CN(c2cccc(-c3ccc4cnc(CNC(=O)c5ccc6c(c5)S(=O)(=O)CC[C@@H]6C)cc4n3)n2)C[C@H](C)O1 [Compound 483] | 43.8 nM | 27.99 | 1230 nM |  |  |  |  |
| C[C@@H]1CN(c2cccc(-c3ccc4cnc(CNC(=O)c5cnc6c(c5)S(=O)(=O)[C@H](C)CCC6)cc4n3)n2)C[C@H](C)O1 [Compound 515] | 231 nM | 11.23 | 2600 nM |  |  |  |  |
| C[C@@H]1CN(c2cncc(-c3ccc4cnc(CNC(=O)c5ccc(C(F)F)c(S(C)(=O)=O)c5)cc4n3)n2)C[C@H](C)O1 [Compound 163] |  |  |  | 20.8 nM | 12.71 | 264 nM |  |
| COc1c(-c2ccc3cnc(CNC(=O)c4ccc5c(c4)S(=O)(=O)CCOC5)cc3n2)cccc1C1CC1 [Compound 430] | 477 nM | 5.06 | 2410 nM |  |  |  |  |
| O=C(NCc1cc2nc(N3CCN(C4CC4)c4cc(C5CC5)cnc43)ccc2cn1)c1ccc2c(c1)S(=O)(=O)CCOC2 [Compound 756] |  |  |  | 15.1 nM |  | 176 nM | 11.62 |
| O=C(NCc1cc2nc(N3CCOc4ccc(C5(F)CC5(F)F)nc43)ccc2cn1)c1ccc2c(c1)S(=O)(=O)CCOC2 (centres unmarked) [Compound 795] |  |  |  | 122 nM |  | 4110 nM | 33.67 |
| CN1CCOc2c(-c3ccc4cnc(CNC(=O)c5ccc6c(c5)S(=O)(=O)CCOC6)cc4n3)ccnc21 [Compound 58] |  |  |  | 96.9 nM | 5.63 | 546 nM |  |
| O=C(NCc1cc2nc(-c3cccc(OC(F)F)c3)ccc2cn1)c1ccc2c(c1)S(=O)(=O)CCOC2 [Compound 278] |  |  |  | 73.8 nM | 25.91 | 1910 nM |  |
| O=C(NCc1cc2nc(N3CCCc4c(F)ccnc43)ccc2cn1)c1ccc2c(c1)S(=O)(=O)CCOC2 [Compound 526] | 22.1 nM | 11.34 | 250 nM |  |  |  |  |
| COC1CCN(c2ccc3cnc(CNC(=O)c4ccc5c(c4)S(=O)(=O)CCOC5)cc3n2)c2ncccc21 (centres unmarked) [Compound 496] | 157 nM | 15.21 | 2390 nM |  |  |  |  |
| C[C@@H]1CN(c2ccc(F)c(-c3ccc4cnc(CNC(=O)c5ccc6c(c5)S(=O)(=O)CCOC6)cc4n3)n2)C[C@H](C)O1 [Compound 166] |  |  |  | 16.8 nM | 12.29 | 206 nM |  |
| O=C(NCc1cc2nc(N3CCCc4ccc(OCC5COC5)cc43)ccc2cn1)c1ccc2c(c1)S(=O)(=O)CCOC2 [Compound 676] | 3 nM | 11.70 | 35.5 nM |  |  |  |  |
| CC1CCc2ccc(-c3ccc4cnc(CNC(=O)c5ccc6c(c5)S(=O)(=O)CCOC6)cc4n3)nc2O1 (centres unmarked) [Compound 529] | 173 nM | 3.88 | 671 nM |  |  |  |  |
| CC1COc2ccc(-c3ccc4cnc(CNC(=O)c5ccc6c(c5)S(=O)(=O)CCOC6)cc4n3)nc2N1C (centres unmarked) [Compound 426] | 23.8 nM | 5.71 | 136 nM |  |  |  |  |
| O=C(NCc1cc2nc(N3CCCc4ccc(F)nc43)ccc2cn1)c1ccc2c(c1)S(=O)(=O)CCOC2 [Compound 603] | 10.7 nM | 10.88 | 117 nM |  |  |  |  |
| O=C(NCc1cc2nc(-n3cc(F)c(N4CCOCC4)n3)ccc2cn1)c1ccc2c(c1)S(=O)(=O)CCOC2 [Compound 574] | 274 nM | 6.49 | 1780 nM |  |  |  |  |
| O=C(NCc1cc2nc(N3CCCc4ccc(OCC5CC5)nc43)ccc2cn1)c1ccc2c(c1)S(=O)(=O)CCOC2 [Compound 589] | 77.7 nM | 13.88 | 1080 nM |  |  |  |  |
| Cc1cnc2c(c1)OCCN2c1ccc2cnc(CNC(=O)c3ccc4c(c3)S(=O)(=O)CCOC4)cc2n1 [Compound 491] | 5.8 nM | 10.83 | 62.8 nM |  |  |  |  |
